Consider one compound from publication PMC6013774 (Chemical Science, 2016).

This assay concerns the target T1, AhbD (Methanosarcina barkeri, UniProt Q46CH7).
T1 sequence (Q46CH7 1-349): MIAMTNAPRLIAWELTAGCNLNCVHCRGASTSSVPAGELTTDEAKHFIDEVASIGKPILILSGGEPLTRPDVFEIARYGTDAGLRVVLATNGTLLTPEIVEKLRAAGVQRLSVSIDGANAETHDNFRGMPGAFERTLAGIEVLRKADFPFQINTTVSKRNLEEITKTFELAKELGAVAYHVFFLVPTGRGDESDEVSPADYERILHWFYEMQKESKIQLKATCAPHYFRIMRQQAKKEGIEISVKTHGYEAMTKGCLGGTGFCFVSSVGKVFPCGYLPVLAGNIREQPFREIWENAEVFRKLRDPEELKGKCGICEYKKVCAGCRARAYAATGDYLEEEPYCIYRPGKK
The assay is described as follows: tryptophan fluorescence quenching. Type of assay: binding.

As a reminder, the Kd is a measure of binding affinity in units of concentration. Read a low Kd as tighter binding.

Molecules are shown by their SMILES.

As to `CC1=C(CCC(=O)O)c2cc3nc(cc4[nH]c(cc5[nH]c(cc1n2)c(C)c5CCC(=O)O)c(CCC(=O)O)c4C)C(CCC(=O)O)=C3C` [COPRO III], the Kd turned out to be 33.9 ± 3.9 µM.
